Experimental data published in the NIST ThermoML archive (doi:10.1021/acs.jced.5b00105).
± gives the expanded uncertainty stated by the source.

Experiment: refractive index (Na D-line) (dimensionless); xn = mol fraction of the nth substance listed
Settings: 100 kPa, Liquid

CCCCC1CCCCC1 [butylcyclohexane] + CC(C)CC(C)(C)C
refractive index
Settings	293.15 K	298.15 K	303.15 K	308.15 K	313.15 K	318.15 K	323.15 K
x1 = 0.0999	1.3972 ± 0.0015	–	1.3928 ± 0.0015	–	1.3884 ± 0.0015	–	–
x1 = 0.1008	–	1.3944 ± 0.0015	–	1.3898 ± 0.0015	–	1.3849 ± 0.0015	1.3824 ± 0.0015
x1 = 0.2	–	1.4001 ± 0.0015	–	1.3953 ± 0.0015	–	1.3907 ± 0.0015	1.3885 ± 0.0015
x1 = 0.2002	1.4026 ± 0.0015	–	1.3981 ± 0.0015	–	1.3935 ± 0.0015	–	–
x1 = 0.3001	1.4079 ± 0.0015	1.4055 ± 0.0015	1.4034 ± 0.0015	1.4008 ± 0.0015	1.3988 ± 0.0015	1.3959 ± 0.0015	1.3943 ± 0.0015
x1 = 0.3996	1.413 ± 0.0015	–	1.4087 ± 0.0015	–	1.4042 ± 0.0015	–	–
x1 = 0.3999	–	1.4105 ± 0.0015	–	1.4057 ± 0.0015	–	1.4015 ± 0.0015	1.3993 ± 0.0015
x1 = 0.5004	–	1.4155 ± 0.0015	–	1.4112 ± 0.0015	–	1.4069 ± 0.0015	1.4045 ± 0.0015
x1 = 0.5005	1.4181 ± 0.0015	–	1.4139 ± 0.0015	–	1.4094 ± 0.0015	–	–
x1 = 0.5999	–	1.4204 ± 0.0015	–	1.4158 ± 0.0015	–	1.4118 ± 0.0015	1.4093 ± 0.0015
x1 = 0.6003	1.423 ± 0.0015	–	1.4186 ± 0.0015	–	1.4141 ± 0.0015	–	–
x1 = 0.6994	1.4276 ± 0.0015	–	1.423 ± 0.0015	–	1.4185 ± 0.0015	–	–
x1 = 0.6995	–	1.4249 ± 0.0015	–	1.4207 ± 0.0015	–	1.4161 ± 0.0015	1.4145 ± 0.0015
x1 = 0.7998	–	1.4295 ± 0.0015	–	1.4249 ± 0.0015	–	1.4208 ± 0.0015	1.4184 ± 0.0015
x1 = 0.8	1.4321 ± 0.0015	–	1.4274 ± 0.0015	–	1.4229 ± 0.0015	–	–
x1 = 0.9	–	1.4335 ± 0.0015	–	1.4292 ± 0.0015	–	1.4248 ± 0.0015	1.4229 ± 0.0015
x1 = 0.9001	1.4362 ± 0.0015	–	1.4314 ± 0.0015	–	1.4271 ± 0.0015	–	–
x1 = 1	1.4403 ± 0.0015	1.4377 ± 0.0015	1.4355 ± 0.0015	1.4333 ± 0.0015	1.4314 ± 0.0015	1.429 ± 0.0015	1.4268 ± 0.0015
